The target of this assay is PARP-1 (Homo sapiens, UniProt P09874). Description: PARP-1 inhibition by rucaparib: MMEJ-based repair at the HPS1 locus in HPS1 B-LCL cells treated with SpyCas9 RNP. The class given is cell-based. An excerpt:
To investigate whether nuclease-mediated collapse of a microduplication occurs via the MMEJ pathway, a DNA repair factor (PARP-1) that regulates DSB flux through this pathway was inhibited. PARP-1 influences the repair of a DSB through resection-dependent DNA repair pathways, such as MMEJ^3,16, which are in competition with the non-homologous end joining pathway (NHEJ) for DSB repair^17. Inhibition of the catalytic activity of PARP-1 by rucaparib reduces DSB flux through the MMEJ pathway, resulting in a decrease in microhomology-based deletion products in the resulting repair events^18. See, FIG. 18A. Patient-derived HPS1 B-LCL cells were treated with 10 µM or 20 μM rucaparib before and after treatment with SpyCas9 RNP to suppress MMEJ-mediated repair of DSBs. See, FIG. 12A. […] See, FIG. 12B. […] See, FIG. 12B-12D. […] See, FIG. 18.
For the PARP-1 inhibition experiments, 300,000 HPS1 patient-derived B-LCL cells were treated with 10 μM or 20 μM rucaparib camsylate (Sigma-Aldrich PZ0036) in standard growth medium for 24 h. Treated cells were electroporated with SpyCas9 RNPs following previously described protocol. Following another 24 h incubation in rucaparib-containing medium, cells were resuspended in PARP-1 inhibitor-free medium and harvested for analysis after 7 days.
The construction of the UMI-based library used a linear amplification step to incorporate UMIs within the amplicons from the target locus^15. HPS1 B-LCL cells and HEK293 Ts were harvested following nuclease treatment for genomic DNA extraction using the GenElute Mammalian Genomic DNA Miniprep Kit (Sigma GIN350).
The analysis of the UMI-tagged deep sequencing reads was adapted from a previous protocol^15. Initially, BWA (version 0.7.5) and SAMtools (version 0.1.19) were used to align each group of filtered merged-read pairs to a corresponding reference sequence, ignoring the unique molecular barcodes. Next, a custom Python and PySAM script was used to process mapped reads into counts of UMI-labelled reads for each target. The mapped reads were filtered by requiring a mapping value (MAPQ) larger than 30. […]

Sequence of PARP-1 (P09874 whole entry): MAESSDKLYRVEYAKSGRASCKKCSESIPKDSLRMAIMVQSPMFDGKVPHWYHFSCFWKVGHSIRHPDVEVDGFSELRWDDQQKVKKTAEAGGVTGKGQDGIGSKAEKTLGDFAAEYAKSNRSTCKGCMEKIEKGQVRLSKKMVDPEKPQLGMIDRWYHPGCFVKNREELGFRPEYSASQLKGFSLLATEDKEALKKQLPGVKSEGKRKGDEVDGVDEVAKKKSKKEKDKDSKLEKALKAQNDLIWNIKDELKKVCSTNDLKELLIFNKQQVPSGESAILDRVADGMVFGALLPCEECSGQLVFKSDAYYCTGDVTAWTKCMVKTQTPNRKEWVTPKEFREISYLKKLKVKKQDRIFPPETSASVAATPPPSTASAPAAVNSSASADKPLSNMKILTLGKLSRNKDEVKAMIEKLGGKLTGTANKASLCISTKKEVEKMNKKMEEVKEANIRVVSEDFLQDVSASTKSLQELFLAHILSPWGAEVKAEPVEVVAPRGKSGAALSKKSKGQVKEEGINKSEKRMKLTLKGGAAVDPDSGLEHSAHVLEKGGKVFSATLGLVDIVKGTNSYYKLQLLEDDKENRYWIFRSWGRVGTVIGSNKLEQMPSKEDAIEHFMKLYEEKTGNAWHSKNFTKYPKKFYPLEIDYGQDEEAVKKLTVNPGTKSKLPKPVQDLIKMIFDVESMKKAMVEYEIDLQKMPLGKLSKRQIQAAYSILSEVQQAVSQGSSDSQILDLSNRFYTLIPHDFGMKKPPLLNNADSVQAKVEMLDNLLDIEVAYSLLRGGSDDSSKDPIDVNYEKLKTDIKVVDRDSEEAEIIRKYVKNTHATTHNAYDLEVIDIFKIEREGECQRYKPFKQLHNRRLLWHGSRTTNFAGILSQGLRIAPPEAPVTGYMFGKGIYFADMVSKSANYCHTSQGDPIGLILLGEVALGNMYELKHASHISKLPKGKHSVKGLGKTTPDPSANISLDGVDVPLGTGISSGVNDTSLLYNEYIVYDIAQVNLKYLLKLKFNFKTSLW

Regarding `CNCc1ccc(-c2[nH]c3cc(F)cc4c3c2CCNC4=O)cc1` [rucaparib, rucaparib camsylate], the 16-bp deletion product result by setting is: (10 μM rucaparib 24 h before and after SpyCas9 RNP) “around 15%”; (20 μM rucaparib 24 h before and after SpyCas9 RNP) around 6%. For the same molecule, the “editing rates at the HPS1 locus upon rucaparib treatment” value (10 or 20 μM rucaparib) is given as “overall reduction in editing rates”.

Values taken from patent US12351836B2, “Microhomology mediated repair of microduplication gene mutations” (UNIVERSITY OF MASSACHUSETTS, priority 2018, dated 2025).
